The conditions of series [1]: rcm bond, 14-membered ring, DCE.
In series [2] the target is T1, HCV NS3-NS4A protease (Hepatitis C virus genotype 1b, UniProt P26663).
T1 construct: made in house
Kind of series: HCV Protease Assay (SensoLyte 620 HCV Protease Assay kit). The series is classed as biochemical. Conditions: 1.2 nM HCV NS3-NS4A protease, 60 min at room temperature, 5% DMSO. A digest of the protocol:
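Protease at 1.2 nM, run with the SensoLyte 620 fluorogenic kit under supplier conditions, with compounds at several concentrations in buffer with 5% final DMSO. Reactions ran 60 min at room temperature before fluorescence reading; IC50 from four-parameter sigmoidal fit of percent inhibition.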

Series [3] deals with Huh-7 cells containing HCV Con1 subgenomic replicon (GS4.1 cells). Description: HCV Replicon Assay (NS4A ELISA). Conditions: NS4A protein by ELISA. The series is classed as cell-based. A digest of the protocol: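 GS4.1 cells (Huh-7 with HCV Con1 subgenomic replicon) given ten 2-fold compound dilutions (top 75 μM) or a single 15 μM dose in 0.5% DMSO for 72 h at 37 °C. NS4A measured by cell ELISA (A492); EC50 from four-parameter sigmoidal fit, single-dose results as % inhibition at 15 μM.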
For orientation: A replicon is a self-replicating genome or part of one, used to study replication in cells.

Series [4] can be described thus: Cytotoxicity evaluation (Cell Titer 96 AQueous One Solution Cell Proliferation Assay). The series is classed as cell-based. The following applies: human; GS4.1 cells, cellular viability. On the procedure: (§1) For cytotoxicity evaluation, GS4.1 cells were treated with compounds as described above and cellular viability was monitored using the Cell Titer 96 AQueous One Solution Cell Proliferation Assay (Promega). CC50 values were determined from the % cytotoxicity versus concentration data with Tecan Magellan software as described above.

The subject of series [5] is genotype 1b replicon. Kind of series: Antiviral activity in a genotype 1b replicon assay. Format: cell-based, HCV. Conditions: Hepatitis C virus; genotype 1b replicon assay as described in Example 32; read-out: EC50. Here is the method:
General procedure: Huh-7 cells containing HCV Con1 subgenomic replicon (GS4.1 cells) were grown in Dulbecco's Modified Eagle Medium (DMEM) supplemented with 10% fetal bovine serum (FBS), 2 mM L-glutamine, 110 mg/L sodium pyruvate, 1× non-essential amino acids, 100 U/mL penicillin-streptomycin, and 0.5 mg/mL G418 (Invitrogen). For dose-response testing, the cells were seeded in 96-well plates at 7.5×10^3 cells/well in a volume of 50 μL, and incubated at 37° C./5% CO2. Three hours after plating, 50 μL of ten 2-fold serial dilutions of compounds (highest concentration, 75 μM) were added, and cell cultures were incubated at 37° C./5% CO2 in the presence of 0.5% DMSO. Alternatively, compounds were tested at a single concentration of 15 μM. In all cases, Huh-7 cells lacking the HCV replicon served as negative control. The cells were incubated in the presence of compounds for 72 hr after which they were monitored for expression of the NS4A protein by enzyme-linked immunosorbent assay (ELISA). For this, the plates were then fixed for 1 min with acetone/methanol (1:1, v/v), washed twice with phosphate-buffered saline (PBS), 0.1% Tween 20, blocked for 1 hr at room temperature with TNE buffer containing 10% FBS and then incubated for 2 hr at 37° C. with the anti-NS4A mouse monoclonal antibody A-236 (ViroGen) diluted in the same buffer. After washing three times with PBS, 0.1% Tween 20, the cells were incubated 1 hr at 37° C. with anti-mouse immunoglobulin G-peroxidase conjugate in TNE, 10% FBS. After washing as described above, the reaction was developed with O-phenylenediamine (Zymed). The reaction was stopped after 30 min with 2 NH2SO4, and absorbance was read at 492 nm using Sunrise Tecan spectrophotometer. EC50 values were determined from the % inhibition versus concentration data using a sigmoidal non-linear regression analysis based on four parameters with Tecan Magellan software. When screening at a single concentration, the results were expressed as % inhibition at 15 μM.
(§2) Compounds were tested in a genotype 1b replicon assay as described in Example 32 and the results are summarized in Table 6, wherein A represents a value smaller than 1 μM, and B represents a value between 1 μM to 10 μM, C represents a value between 10 μM to 75 μM and D represents a value greater than 75 μM.

The nature of series [6]: Cytotoxicity (CC50) in the genotype 1b replicon assay. Format: cell-based. Conditions: human, GS4.1 cells; genotype 1b replicon assay as described in Example 32. Here is the method: as §1, §2
The subject of series [7] is HCV genotype 2a infectious virus. Kind of series: HCV genotype 2a infectious virus assay. Conditions: Hepatitis C virus. Format: cell-based, HCV (strain JFH-1; genotype 2a). Here is the method: Compounds were tested in a HCV genotype 2a infectious virus assay and the results are summarized in Table 7, wherein A represents a value smaller than 1 μM, and B represents a value between 1 μM to 10 μM, C represents a value between 10 μM to 75 μM and D represents a value greater than 75 μM.
The HCV in vitro infection core ELISA assay measures the ability of a test compound to inhibit replication of an infectious HCV (strain JFH-1; genotype 2a) in cell culture. […] We have developed this model for determining the efficacy of antiviral compounds against an infectious virus in vitro using HCV producing cells (HPC), a proprietary Huh-7-derived cell sublineage capable of propagating the JFH-1 HCV virus. The readout of the assay is quantification of HCV core protein by ELISA 5 days post infection with JFH-1 virus and treatment with a test compound.
Ninety-six-well Corning Costar plates were seeded with HPC cells at a density of 3.0×10^3 cells per well in 50 μL of Huh-7 media. Compound stock solutions were made up freshly in Huh-7 media (DMEM (containing glucose, L-glutamine and sodium pyruvate), 10% FBS, 100 IU/mL penicillin, 100 μg/mL streptomycin, 2 mM GlutaMAX, 1% MEM non-essential amino acids) as 2× stock. Seven additional 3-fold drug dilutions were prepared from the 2× stocks in Huh-7 media. At least 4 hours after HPC cells were seeded, the media in the 96-well culture plates was aspirated and 50 μL of each drug dilution and 50 μL of JFH-1 HCV was added to each well.
At 16 hrs post treatment and infection, the virus inoculum was removed by aspiration. The cultures were treated at the same final concentrations of drug diluted to 1× in Huh-7 media to a final volume of 200 μL. Cells were incubated in the presence of drug for 4 additional days at 37° C./5% CO2.
Media was removed from the plates by aspiration. Cells were fixed with 250 μL 1:1 acetone:methanol for 90 seconds, washed once in PBS and then three times with 1×KPL wash solution. The assay plates were then blocked with 150 μL/well 10% FBS-TNE (50 mM Tris-HCl (pH 7.5; Sigma), 100 mM NaCl, 1 mM EDTA with 10% FBS) for 1 hr at room temperature. Cells were washed three times with 1×KPL wash solution and incubated with 100 μL/well anti-hepatitis C core mAb (1 mg/mL stock diluted 1:500 in 10% FBS-TNE) for 2 hours at 37° C. Cells were washed three times with 1×KPL wash solution and incubated with 100 μL/well HRP-goat anti-mouse antibody (diluted 1:2,500 in 10% FBS-TNE) for 1 hr at 37° C.
OPD solution was prepared using 1 OPD tablet+12 mL citrate/phosphate buffer (16 mM citric acid, 27 mM Na2HPO4) plus 5 μL 30% H2O2 per plate. Cells were washed three times with 1×KPL wash solution and developed with 100 μL/well OPD solution for 30 minutes in the dark at room temperature. The reaction was stopped with 100 μL/well of 2NH2SO4, and absorbance measured at A490 nm in a Victor^3 V 1420 multilabel counter (Perkin Elmer). The EC50 values for each compound were calculated from dose response curves from the resulting best-fit equations determined by Microsoft Excel and XLfit 4.1 software. The negative control for inhibition of virus replication was untreated HPC cells infected with the JFH-1 HCV virus strain. The negative ELISA control was untreated, uninfected HPC cells. The positive ELISA control was untreated HPC cells infected the JFH-1 HCV virus strain.

The test system of series [8] is GS4.1 cells. Description: Cytotoxicity evaluation (Cell Titer 96 AQueous One Solution Cell Proliferation Assay). Format: cell-based. The following applies: cellular viability. Here is the method: as §1
The mark [9] stands for this setting: Hepatitis C virus, Huh-7, 72 hr.

Eight compounds from patent publication US8003659B2, “Macrocyclic serine protease inhibitors” (Indenix Pharmaceuticals, Inc., priority 2008, dated 2011) can be followed below.

The structures appear in SMILES notation. Like-named read-outs stand apart in the source and are kept apart here. Some results are limits rather than exact numbers.

T1 sequence (P26663 1027-1208): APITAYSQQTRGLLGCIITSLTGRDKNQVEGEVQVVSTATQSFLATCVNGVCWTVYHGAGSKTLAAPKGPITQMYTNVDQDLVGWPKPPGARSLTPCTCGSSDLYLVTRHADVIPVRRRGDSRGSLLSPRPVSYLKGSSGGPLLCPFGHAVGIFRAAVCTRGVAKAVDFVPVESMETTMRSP

Regarding `CCOC(=O)[C@@]12C[C@@H]1C=CCCCCN(C)C(=O)[C@@H]1C[C@@H](O[Si](C)(C)C(C)(C)C)CN1C(=O)N2`, in series [1] (from C=CCCCCN(C)C(=O)[C@@H]1C[C@@H](O[Si](C)(C)C(C)(C)C)CN1C(=O)N[C@]1(C(=O)OCC)C[C@@H]1C=C, Hoveyda-Grubbs II (6%), 1.9 mM, 3.0 h), the ring closure, isolated yield stood at 51%.

In turn, `COc1ccc2c(O[C@H]3C[C@H]4C(=O)N(C)CCCCC=C[C@@H]5C[C@@]5(C(=O)NS(=O)(=O)C5CC5)NC(=O)N4C3)cc(-n3ccc(C(F)(F)F)n3)nc2c1Cl` had a ring closure, isolated yield in series [1] (from C=CCCCCN(C)C(=O)[C@@H]1C[C@H](Oc2cc(-n3ccc(C(F)(F)F)n3)nc3c(Cl)c(OC)ccc23)CN1C(=O)N[C@]1(C(=O)NS(=O)(=O)C2CC2)C[C@H]1C=C, Zhan 1B, 1.0 mM, 60.0 °C, 18.0 h) of 40%.

In general, IC50 refers to the concentration needed to halve the response being measured. The EC50 is the concentration needed to bring the measured effect to its halfway point. The CC50 is the concentration at which the toxic effect on the cells reaches its halfway point. In turn, `COc1ccc2c(O[C@H]3C[C@H]4C(=O)N(C)CCCC/C=C\[C@@H]5C[C@@]5(C(=O)NS(=O)(=O)C5(C)CC5)NC(=O)N4C3)cc(-c3nc(C(F)(F)F)cs3)nc2c1C` [Compound 68b, (Z)-(4R,6S,15S,17S)-[17-[7-methoxy-8-methyl-2-(4-trifluoromethythiazol-2-yl)quinolin-4-yloxy]-13-N-methyl-2,14-dioxo-1,3,13-triazatricyclo[13.3.0.0]octadec-7-en-4-yl]carbonyl(1-methylcyclopropyl)sulfonamide] registered a ring closure, isolated yield in series [1] (from C=CCCCCN(C)C(=O)[C@@H]1C[C@H](Oc2cc(-c3nc(C(F)(F)F)cs3)nc3c(C)c(OC)ccc23)CN1C(=O)N[C@]1(C(=O)NS(=O)(=O)C2(C)CC2)C[C@H]1C=C, Zhan 1B (8%), 4.9 mM, 75.0 °C, 4.33 h) of 30%. This compound yielded a concentration for half-maximal inhibition (IC50) in series [2] of less than 1000 nM. The EC50 in series [3] (setting [9]), in series [5] and in series [7] was less than 1000 nM each time. In addition, the values for the CC50 in series [4] and in series [6] were more than 75000 nM and 10000 to 75000 nM, respectively.

In series [2], `COc1ccc2c(O[C@H]3C[C@H]4C(=O)N(C)CCCC/C=C\[C@@H]5C[C@@]5(C(=O)NS(=O)(=O)C5CC5)NC(=O)N4C3)cc(-c3nc(C(F)(F)F)cs3)nc2c1C` [Compound 69b, (Z)-(4R,6S,15S,17S)-[17-[7-methoxy-8-methyl-2-(4-trifluoromethythiazol-2-yl)quinolin-4-yloxy]-13-N-methyl-2,14-dioxo-1,3,13-triazatricyclo[13.3.0.0]octadec-7-en-4-yl]carbonyl(cyclopropyl)sulfonamide] had an IC50 of less than 1000 nM. For the same compound, the EC50 in series [3] (setting [9]), in series [5] and in series [7] was less than 1000 nM each time. In addition, the CC50 in series [4] and in series [6] was more than 75000 nM throughout.

`COc1ccc2c(O[C@@H]3C[C@H]4C(=O)N(C)CCCCC/C=C\[C@@H]5C[C@@]5(C(=O)NS(=O)(=O)C5(C)CC5)NC(=O)N4C3)cc(-c3nc(C(C)C)cs3)nc2c1C` [Compound 76a, (Z)-(4R,6S,16S,18R)-[2,15-dioxo-18-[7-methoxy-8-methyl-2-(4-isopropylthiazol-2-yl)quinolin-4-yloxy]-14-N-methyl-1,3,14-triazatricyclo[14.3.0.0]nonadec-7-en-4-yl]carbonyl(1-methyl-cyclopropyl)sulfonamide] returned an IC50 in series [2] of 1000 to 10000 nM. Moreover, the concentration for a half-maximal effect (EC50) in series [3] (72 hr) fell in the range of 1000 to 10000 nM. Besides, in series [8], the CC50 is more than 75000 nM.

In turn, `COc1ccc2c(O[C@@H]3C[C@H]4C(=O)N(C)CCCCCC/C=C\[C@@H]5C[C@@]5(C(=O)NS(=O)(=O)C5(C)CC5)NC(=O)N4C3)cc(-c3nc(C(C)C)cs3)nc2c1C` [Compound 76b] returned an IC50 in series [2] of less than 1000 nM. Besides, the EC50 in series [3] (72 hr) fell in the range of 1000 to 10000 nM. This compound also had a CC50 in series [8] of more than 75000 nM.

As for `COc1ccc2c(O[C@H]3C[C@H]4C(=O)N(C)CCCC/C=C\[C@@H]5C[C@@]5(C(=O)NS(=O)(=O)C5CC5)NC(=O)N4C3)cc(-c3csc(C#N)n3)nc2c1Cl` [Compound T1, (Z)-(4R,6S,15S,17S)-[17-[8-chloro-7-methoxy-2-(2-cyanothiazol-4-yl)quinolin-4-yloxy]-13-N-methyl-2,14-dioxo-1,3,13-triazatricyclo-[13.3.0.0]octadec-7-en-4-yl]carbonyl-(cyclopropyl)sulfonamide], the IC50 in series [2] was less than 1000 nM. In series [3] (72 hr), this compound showed a concentration giving a half-maximal response (EC50) of less than 1000 nM. Further, the 50% cytotoxic concentration (CC50) in series [8] was 10000 to 75000 nM.

On to `COc1ccc2c(O[C@H]3C[C@H]4C(=O)N(C)CCCC/C=C\[C@@H]5C[C@@]5(C(=O)NS(=O)(=O)C5(C)CC5)NC(=O)N4C3)cc(-c3csc(C#N)n3)nc2c1Cl` [Compound T2, (Z)-(4R,6S,15S,17S)-[17-[8-chloro-7-methoxy-2-(2-cyanothiazol-4-yl)quinolin-4-yloxy]-13-N-methyl-2,14-dioxo-1,3,13-triazatricyclo-[13.3.0.0]octadec-7-en-4-yl]carbonyl-(1-methylcyclopropyl)sulfonamide], for which, in series [2], the half-inhibitory concentration (IC50) was less than 1000 nM. For the same compound, the EC50 in series [3] (72 hr) is less than 1000 nM. The compound also displayed a CC50 in series [8] of more than 75000 nM.
